Laboratory results reported in patent US20160375088A1, “CARDIOLIPIN-TARGETED PEPTIDES INHIBIT BETA-AMYLOID OLIGOMER TOXICITY” (priority 2013, published 2016).

Tests used:
Aβ1-42 oligomers [1] = molecular target: T1, Aβ1-42 oligomers (Homo sapiens, UniProt P05067); assay: Fluorescence emission spectra: interaction of peptide with Aβ1-42 oligomers; type: binding; parameters: purchased Life Technologies; conditions: for shift of emission on contact with Aβ oligomers: 1 μM Aβ oligomers; for emission maximum (λmax) with Aβ oligomers: 20 mM Hepes pH 7.4, 1 μM Aβ oligomers
Excerpt: Interaction of Aromatic-cationic Peptides with Aβ1-42 Oligomers:
D-Arg-2′,6′-Dmt-Lys-Ald-NH2 ([ald]SS-31) is an aladan (ald) containing derivative of D-Arg-2′,6′-Dmt-Lys-Phe-NH2 (SS-31). See Birk et al., J Am Soc Nephrol. 24(8): 1250-1261 (2013). […] Thus, interaction between D-Arg-2′,6′-Dmt-Lys-Ald-NH2 ([ald]SS-31) and phospholipids causes an observable shift in the fluorescence spectra of the peptide. See Birk et al., J Am Soc Nephrol. 24(8): 1250-1261 (2013). […] The fluorophore aladan was used as a control. All experiments were conducted in 20 mM Hepes (pH 7.4) so as to replicate an environment with physiological pH.

Aβ1-42 oligomers [2] = molecular target: T1, Aβ1-42 oligomers; assay: Turbidity (right-angle light scattering at 633 nm) of peptides with Aβ1-42 oligomers; parameters: purchased Life Technologies; conditions: 40 μM Aβ, Hepes pH 7.4
Procedure: Turbidity Measurements of Aromatic-Cationic Peptides Complexed with Aβ1-42 Oligomers: The turbidity of solutions containing aromatic-cationic peptides and/or Aβ1-42 oligomers was measured via right-angle scattering at λ=633 nm (Hitachi F-4500 Fluorescent Spectrophotometer). All experiments were conducted in Hepes (pH 7.4) and scanned immediately.

[3] = molecular target: T2, Aβ1-42-Cardiolipin-Cu^2+ complex (Homo sapiens, UniProt P05067); assay: Aβ1-42-Cardiolipin-Cu2+ complex oxygenase activity (Amplex Red, no H2O2); type: biochemical; conditions: for increase in Aβ1-42-mediated oxygenase activity compared to the non-metal treated control: 10 μM metal salt incubated with cardiolipin and Aβ1-42 oligomers; for reduction in Aβ1-42-mediated oxygenase activity compared to untreated controls: 10 μM peptide, 30 μM CuCl2, 50 μM Amplex Red; for reduction in Aβ1-42-mediated oxygenase activity compared to untreated controls / inhibition of Aβ1-42-mediated oxygenase activity compared to untreated controls: 30 μM TLCL; for inhibition of Aβ1-42-mediated oxygenase activity compared to untreated controls: 100 μM peptide; for inhibition of Cu2+-dependent stimulation of Aβ1-42-mediated oxygenase activity, dose dependence: FIG. 4B, varying peptide concentrations
T2 construct: purchased Life Technologies
Procedure: Oligomerization of Aβ1-42 Peptide: Aβ1-42 peptide was dissolved in 1.5 mL of a 1:1 water/acetonitrile solution. 500 μL aliquots were frozen in a methanol/dry ice cooling bath and then lyophilized. Once lyophilized, each aliquot was dissolved in 20 μL DMSO. The aliquots were then vortexed, centrifuged, and sonicated in a water bath at room temperature. 200 μL of filtered 1×PBS and 20 μL of 2% SDS were subsequently added. The Aβ1-42 peptide solution was incubated at 37° C. for 6 hours. 580 μL of water was subsequently added to the Aβ1-42 peptide solution, followed by a 16 hour incubation at 37° C. prior to being stored at 4° C.
Measurement of Aβ1-42-Cardiolipin-Cu^2+ Complex Oxygenase Activity:
Aβ1-42-Cardiolipin-Cu^2+ oxygenase activity was measured using the Amplex Red kit. Amplex Red is a dye that reacts with H2O2 in a 1:1 stoichiometric ratio to produce a highly fluorescent derivative called resorufin (λex/λem=570/585 nm). The presence of peroxidase activity in an Amplex reaction lacking H2O2 is an indicator of oxygenase activity resulting from the reaction between the Amplex Red reagent and oxygen in the solution. All experiments were conducted in the absence of H2O2. A measurement was immediately taken after the introduction of Amplex Red, the last reagent that was added to the reaction. The reaction was allowed to proceed for an additional 10 minutes. Continuous time course data over the 10-minute period was obtained using a microplate spectrofluorometer (Molecular Devices, Sunnyvale, Calif.).

Aβ1-42 oligomers [4] = molecular target: T1, Aβ1-42 oligomers; assay: Transmission electron microscopy of Aβ fibril formation
[5] = 800 nM Aβ oligomers, 30 μM CuCl2

T1 sequence (P05067 672-713 limits assumed): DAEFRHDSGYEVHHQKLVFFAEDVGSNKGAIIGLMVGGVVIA
T2 sequence (P05067 672-713 limits assumed, one chain of several): as the sequence (P05067 672-713 limits assumed) above

Compound	shift of emission on contact with Aβ oligomers (Aβ1-42 oligomers [1])	emission maximum (λmax) with Aβ oligomers (Aβ1-42 oligomers [1]; 1 μM, λex=360 nm) [nm]	change in light scattering (turbidity) compared to Aβ1-42 oligomer control sample (Aβ1-42 oligomers [2])	light scattering (Aβ1-42 oligomers [2])	increase in Aβ1-42-mediated oxygenase activity compared to the non-metal treated control [3] [%]	reduction in Aβ1-42-mediated oxygenase activity compared to untreated controls ([3]; 800 nM Aβ oligomers) [%]	inhibition of Aβ1-42-mediated oxygenase activity compared to untreated controls [3, 5]	inhibition of Cu2+-dependent stimulation of Aβ1-42-mediated oxygenase activity, dose dependence [3]	other results
CN(C)c1ccc2cc(C(=O)CC(N)C(=O)O)ccc2c1 (stereo not drawn) [Ald, β-(6′-dimethylamino-2′-naphthoyl)alanine, reference compound]	no shift	535	no change in turbidity	about 180 RFUs	–	–	–	–	–
O=[N+]([O-])[O-].O=[N+]([O-])[O-].[Cu+2] [Cu(NO3)2, copper (II) nitrate hydrate, reference compound]	–	–	–	–	500	–	–	–	–
[Cl][Cu][Cl] [CuCl2, copper (II) chloride, reference compound]	–	–	–	–	> 500	–	–	–	–
CCCCCC=CCC=CCCCCCCCC(=O)OCC(COP(=O)(O)OCC(O)COP(=O)(O)OCC(COC(=O)CCCCCCCC=CCC=CCCCCC)OC(=O)CCCCCCCC=CCC=CCCCCC)OC(=O)CCCCCCCC=CCC=CCCCCC (stereo not drawn) [TLCL, 1,1′,2,2′-tetralinoleoyl cardiolipin, reference compound]	–	–	–	–	–	–	–	–	stimulation of Aβ1-42-mediated oxygenase activity in the presence of Cu2+ ions by phospholipid [3, 5]: capable of stimulating
D-Arg-2′,6′-Dmt-Lys-Ald-NH2 [[ald]SS-31]	blue shift	465	six-fold increase	–	–	90	complete inhibition	dose dependent	incubation time resulting in formation of Aβ fibrils (Aβ1-42 oligomers [4]; natural fibrillation takes at least seven days): 25 min; increase in the rate of fibril formation (Aβ1-42 oligomers [4]; versus natural fibrillation): 400 fold; emission maximum (λmax) before Aβ oligomers (Aβ1-42 oligomers [1]; 1 μM, λex=360 nm, 20 mM Hepes pH 7.4, no Aβ): 535 nm
D-Arg-2′,6′-Dmt-Lys-Phe-NH2 [SS-31]	–	–	no change in turbidity	about 180 RFUs	–	90	complete inhibition	dose dependent	–
